The source of these data is patent US20240365736A1, “COMPOSITIONS AND METHODS FOR TARGETED DEGRADATION OF PROTEINS IN A PLANT CELL” (Oerth Bio LLC, priority 2021, published 2024).

Some results are limits rather than exact numbers.

For one data set, the target named is plant cereblon (Cereblon ligand binding domain) (Arabidopsis thaliana, UniProt F4ISN3). The data set can be described thus: Ligand binding affinity by microscale thermophoresis (Monolith), labeled Cereblon ligand binding domain. Conditions: MST, RED-tris-NTA His-tag labeled Cereblon ligand binding domain, 25 nM labeled protein; binding to plant cereblon; read-out: Plant CRBN Kd. How it is done: The binding affinity of the described test compounds was determined using RED-tris-NTA His-tag labeled Cereblon ligand binding domain. The labeling of the Cereblon ligand binding domain was performed according to manufacturer's protocol in assay buffer (50 nM protein: 10 nM dye, 5:1 protein to dye ratio). 200 μM compound in assay buffer (10 mM HEPES pH 7.4, 300 mM NaCl, 0.1% Pluronic-147, 10% Glycerol, 5 mM DTT) was created from 10 mM compound stock in DMSO. A 16-point serial dilution was achieved by taking 10 μL of the 200 μM first well and diluting into 10 μL of assay buffer in the second well, which was diluted in 10 μL assay buffer in the third well, and so on. DMSO content of each well matched to 2%. 10 μL of 50 nM CRBN was added to each well and mixed thoroughly by pipetting. Final assay concentration of 25 nM labeled protein and highest compound concentration of 100 μM, 1% DMSO.
plant cereblon (Cereblon ligand binding domain), sequence (F4ISN3 1-547): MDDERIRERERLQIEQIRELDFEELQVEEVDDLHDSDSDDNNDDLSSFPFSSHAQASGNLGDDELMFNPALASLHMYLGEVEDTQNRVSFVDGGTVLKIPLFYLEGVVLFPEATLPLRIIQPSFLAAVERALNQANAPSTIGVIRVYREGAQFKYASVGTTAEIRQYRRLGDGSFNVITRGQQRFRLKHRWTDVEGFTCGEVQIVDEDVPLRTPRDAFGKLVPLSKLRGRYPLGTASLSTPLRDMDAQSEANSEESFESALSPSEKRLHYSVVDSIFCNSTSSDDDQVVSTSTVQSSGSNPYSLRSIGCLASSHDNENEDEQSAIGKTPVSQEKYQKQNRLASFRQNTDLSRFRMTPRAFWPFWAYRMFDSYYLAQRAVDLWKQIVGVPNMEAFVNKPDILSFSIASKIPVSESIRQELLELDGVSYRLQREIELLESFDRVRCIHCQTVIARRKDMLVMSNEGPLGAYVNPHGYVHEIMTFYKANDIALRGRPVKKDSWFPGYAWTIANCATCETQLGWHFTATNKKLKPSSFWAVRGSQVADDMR
Samples were incubated at room temperature in the dark for five minutes, then collected in standard Monolith capillaries. Assay was performed on the Monolith NT.155Pico using automated excitation level and medium power on M.O. Control software. Analysis of MST traces and determination of dissociation constants and was conducted in M.O. Affinity Analysis software, and the results are shown in Table 2 below.
A general note: In MST a laser heats a spot of the sample, and binding alters the fluorescence response.
As to `COCCOCC1COCCN1Cc1ccc(COc2cccc3c2CN([C@H]2CCC(=O)NC2=O)C3=O)cc1` (stereo partly drawn) [Example 11, (3S)-3-(4-((4-((3-((2-methoxyethoxy)methyl)morpholino)methyl)benzyl)-oxy)-1-oxoisoindolin-2-yl)piperidine-2,6-dione], the Kd (as a rule, the free concentration of one partner at which half of the binding sites on the other are occupied at equilibrium, for simple one-to-one binding) is < 100 nM.
Same read-out and setting: for `COCCNCC1COCCN1Cc1ccc(COc2cccc3c2CN([C@H]2CCC(=O)NC2=O)C3=O)cc1` (stereo partly drawn) [Example 12, (3S)-3-[4-[[4-[[3-[(2-Methoxyethylamino)methyl]morpholin-4-yl]methyl]-phenyl]methoxy]-1-oxo-isoindolin-2-yl]piperidine-2,6-dione] the value was 100 to 1000 nM.
As to `COCCNC(=O)C1CCCN(Cc2ccc(COc3cccc4c3CN(C3CCC(=O)NC3=O)C4=O)cc2)C1` [Example 14, 1-(4-(((2-((S)-2,6-dioxopiperidin-3-yl)-1-oxoisoindolin-4-yl)oxy)methyl)benzyl)-N-(2-methoxyethyl)piperidine-3-carboxamide], the Kd was in the range of 100 to 1000 nM.
On to `COCCNC(=O)C1CCN(Cc2ccc(COc3cccc4c3CN([C@H]3CCC(=O)NC3=O)C4=O)cc2)CC1` [Example 16, (S)-1-(4-(((2-(2,6-dioxopiperidin-3-yl)-1-oxoisoindolin-4-yl)oxy)methyl)benzyl)-N-(2-methoxyethyl)piperidine-4-carboxamide], for which the Kd was 100 to 1000 nM.
On the same count and under the same terms, to `COCCNC(=O)C1CCN(Cc2ccc(COc3cccc4c3CN(C3CCC(=O)NC3=O)C4=O)cc2)C1` [Example 18, 1-(4-(((2-((S)-2,6-dioxopiperidin-3-yl)-1-oxoisoindolin-4-yl)oxy)methyl)benzyl)-N-(2-methoxyethyl)pyrrolidine-3-carboxamide] belongs 100 to 1000 nM; to `COCCOCC1CCN(Cc2ccc(COc3cccc4c3CN([C@H]3CCC(=O)NC3=O)C4=O)cc2)CC1` [Example 20, (S)-3-(4-((4-((4-((2-methoxyethoxy)methyl)piperidin-1-yl)methyl)-benzyl)oxy)-1-oxoisoindolin-2-yl)piperidine-2,6-dione], 100 to 1000 nM; to `COCCOc1cc(OCc2ccc(CN3CCOCC3)cc2)c2c(c1)C(=O)N([C@H]1CCC(=O)NC1=O)C2` [Example 21, (3S)-3-[6-(2-methoxyethoxy)-4-[[4-(morpholinomethyl)-phenyl]methoxy]-1-oxo-isoindolin-2-yl]piperidine-2,6-dione], < 100 nM.
The same measure, in the same setting: for `COCCNc1cc(COc2cccc3c2CN([C@H]2CCC(=O)NC2=O)C3=O)ccc1CN1CCOCC1` [Example 22, (3S)-3-[4-[[3-(2-methoxyethylamino)-4-(morpholinomethyl)-phenyl]methoxy]-1-oxo-isoindolin-2-yl]piperidine-2,6-dione] the value was < 100 nM.
Same read-out and setting: for `COCCNc1cc(CN2CCOCC2)ccc1COc1cccc2c1CN([C@H]1CCC(=O)NC1=O)C2=O` [Example 23, (S)-3-(4-((2-((2-methoxyethyl)amino)-4-(morpholinomethyl)-benzyl)oxy)-1-oxoisoindolin-2-yl)piperidine-2,6-dione] the value was 100 to 1000 nM; for `COCCNC(=O)c1cc(COc2cccc3c2CN([C@H]2CCC(=O)NC2=O)C3=O)ccc1CN1CCOCC1` [Example 24, (S)-5-(((2-(2,6-dioxopiperidin-3-yl)-1-oxoisoindolin-4-yl)oxy)methyl)-N-(2-methoxyethyl)-2-(morpholinomethyl)benzamide], 100 to 1000 nM; for `O=C1CCC(N2C(=O)c3ccccc3C2=O)C(=O)N1` (centres unmarked) [Ref 1, Thalidomide, reference compound], > 1000 nM.
Regarding `Nc1cccc2c1C(=O)N(C1CCC(=O)NC1=O)C2=O` (centres unmarked) [Ref 2, Pomalidomide, reference compound], the Kd was > 1000 nM.

System in a further data set: not listed separately
The data set can be described thus: Uptake in plant cells: LCMS quantification in treated Abutilon leaves and leaf washings. The settings on record: Abutilon (plant), leaf wash (20 mL acetonitrile), topical, 10 μL of 400 μM formulation per leaf; wash of treated Abutilon leaves in 20 mL acetonitrile, 24 hours after treatment; read-out: Average Concentration μM (leaf wash). Type of data set: in vivo. How it is done:
Abutilon plants were sown in 3 inch pots and allowed to germinate and reach the two leaf stage. At the two leaf stage, plants were separated into groups of 8 plants and had one of their first true leaves labeled with a black marker. Formulation treatment samples were prepared using the following protocol. All treatment samples were prepared to 400 μM. Just before treatment, samples were emulsified and 10 μL of formulated compound was pipetted onto leaves marked for treatment in small droplets evenly across the leaf surface. Once all leaves were treated, they were allowed to sit undisturbed in a growth chamber for 24 hours. After 24 hours plants were removed from the chamber for sample collection.
Using clean scissors treated leaves were removed from the plants, and washed in 20 mL of LCMS grade acetonitrile. A sample of the wash solution was collected and set aside for analysis. The washed leaves were then stored in 7 mL centrifuge tubes and set aside. 8 treated leaves from a grouping were stored in the same sample tube. The untreated leaves were collected and stored in separate 7 mL tubes. The same was done with new growth.
The samples were stored in a −80° C. freezer for 24 hours before milling. Fresh stock of 80:20 LCMS grade acetonitrile and water was prepared as a milling solution. 3 to 4 ceramic milling beads were added to each tube along with 300 μL of milling solution. Tubes were sealed and put into a benchtop homogenizer. Samples were milled for two 12 second intervals at maximum speed with a 30 second rest period in between. Samples were then moved to a 4° C. centrifuge where they were centrifuged at 15000 rpm for 6 minutes. Supernatant was collected and put into 2 mL microcentrifuge tubes. […]
Samples were run with injections of 10 μL. Data was analyzed and calibration curves were built for known samples, using area under the curve for [M+H]. Unknown concentrations were calculated with the calibration curves to determine the amount of PROTAC® compound present at 24 hours in treated leaves and in the leaf washings.
`COc1cnc(OC)n2nc(NS(=O)(=O)c3c(OCCOCCOCCOCCOCCOCCOc4ccc5c(c4)C(=O)N(C4CCC(=O)NC4=O)C5=O)cccc3C(F)(F)F)nc12` (centres unmarked) [Compound 4-B, N-(5,8-Dimethoxy-[1,2,4]triazolo[1,5-c]pyrimidin-2-yl)-2-((17-((2-(2,6-dioxopiperidin-3-yl)-1,3-dioxoisoindolin-5-yl)oxy)-3,6,9,12,15-pentaoxaheptadecyl)oxy)-6-(trifluoromethyl)benzenesulfonamide]: the concentration at 24 h stood at 0.342 µM.

Staying with this data set, now noted: Abutilon (plant), treated leaves (milled extract supernatant), topical, 10 μL of 400 μM formulation per leaf; Abutilon treated leaves, 24 hours after 10 μL of 400 μM formulated compound on leaf; read-out: Average Concentration μM (treated leaves).
Regarding `COc1cnc(OC)n2nc(NS(=O)(=O)c3c(OCCOCCOCCOCCOCCOCCOc4ccc5c(c4)C(=O)N(C4CCC(=O)NC4=O)C5=O)cccc3C(F)(F)F)nc12` (centres unmarked) [Compound 4-B, N-(5,8-Dimethoxy-[1,2,4]triazolo[1,5-c]pyrimidin-2-yl)-2-((17-((2-(2,6-dioxopiperidin-3-yl)-1,3-dioxoisoindolin-5-yl)oxy)-3,6,9,12,15-pentaoxaheptadecyl)oxy)-6-(trifluoromethyl)benzenesulfonamide], the concentration at 24 h was found to be 0.491 µM.

Staying with this data set, now noted: Abutilon leaves, 24 hours.
For the compound `COc1cnc(OC)n2nc(NS(=O)(=O)c3c(OCCOCCOCCOCCOCCOCCOc4ccc5c(c4)C(=O)N(C4CCC(=O)NC4=O)C5=O)cccc3C(F)(F)F)nc12` (centres unmarked) [Compound 4-B, N-(5,8-Dimethoxy-[1,2,4]triazolo[1,5-c]pyrimidin-2-yl)-2-((17-((2-(2,6-dioxopiperidin-3-yl)-1,3-dioxoisoindolin-5-yl)oxy)-3,6,9,12,15-pentaoxaheptadecyl)oxy)-6-(trifluoromethyl)benzenesulfonamide], the Uptake by leaves result is reported as “effectively taken up by leaves”.

For a further data set, the system named is Matricaria recutita, Diplotaxis tenuifolia, Agrostis spp., Poa annua, or Arabidopsis thaliana. Briefly: Plant phenotyping assay (herbicidal phenotypes, 96-well plates). Note: key: '+++' is highly active; '++' is moderately active; '+' is weakly active; '−' is inactive. Type of data set: in vivo. Conditions: visual score of herbicidal phenotypes after seven days; 238, 475, 950, and 1900 g ai/ha (50-400 uM). As for the experimental part:
Seeds of Matricaria recutita, Diplotaxis tenuifolia, Agrostis spp., Poa annua, or Arabidopsis thaliana were sown into 96-well plates containing 200 μl of growth media [0.5× Murashige and Skoog (MS) basal media (Sigma-Aldrich), 2.5 mM 2-(N-morpholino) ethanesulfonic acid (MES—Sigma-Aldrich), 0.7 g/L Phytagar (Invitrogen); pH 5.7]. Three to five seeds were distributed per well. Plates were placed under fifteen hours of light at 23° C., 65% humidity in a controlled environment growth chamber. After approximately three days, test compounds and controls were mixed with acetone and emulsified with an equal volume of 3% methyl ester of rapeseed oil (Mero), and applied to plants at concentrations of 238, 475, 950, and 1900 g ai/ha (50-400 uM).
`COc1cnc(OC)n2nc(NS(=O)(=O)c3c(OCCOCCOCCOCCOCCOCCOc4ccc5c(c4)C(=O)N(C4CCC(=O)NC4=O)C5=O)cccc3C(F)(F)F)nc12` (centres unmarked) [Compound 4-B, N-(5,8-Dimethoxy-[1,2,4]triazolo[1,5-c]pyrimidin-2-yl)-2-((17-((2-(2,6-dioxopiperidin-3-yl)-1,3-dioxoisoindolin-5-yl)oxy)-3,6,9,12,15-pentaoxaheptadecyl)oxy)-6-(trifluoromethyl)benzenesulfonamide]: the “Plant Activity” value was “+++”.
The same measure, in the same setting: for `O=C(COc1ccc(Oc2nc3ccc(F)cc3s2)cc1)NCCCOCCOCCOCCOCCOc1ccc2c(c1)C(=O)N(C1CCC(=O)NC1=O)C2=O` (centres unmarked) [Compound 8, N-[3-[2-[2-[2-[2-[2-(2,6-dioxo-3-piperidyl)-1,3-dioxo-isoindolin-5-yl]oxyethoxy]-ethoxy]ethoxy]ethoxy]propyl]-2-[4-[(6-fluoro-1,3-benzothiazol-2-yl)oxy]phenoxy]acetamide] the value was “+”; for `O=C(COc1ccc(Oc2nc3ccc(F)cc3s2)cc1)NCCCOCCOCCOc1ccc2c(c1)C(=O)N(C1CCC(=O)NC1=O)C2=O` (centres unmarked) [Compound 8-A, N-(3-(2-(2-((2-(2,6-Dioxopiperidin-3-yl)-1,3-dioxoisoindolin-5-yl)oxy)ethoxy)ethoxy)propyl)-2-(4-((6-fluorobenzo[d]thiazol-2-yl)oxy)phenoxy)acetamide], “+”.
Same read-out and setting: for `O=C(COc1ccc(Oc2nc3ccc(F)cc3s2)cc1)NCCCOCCOCCOCCOc1ccc2c(c1)C(=O)N(C1CCC(=O)NC1=O)C2=O` (centres unmarked) [Compound 8-B, N-(3-(2-(2-(2-((2-(2,6-Dioxopiperidin-3-yl)-1,3-dioxoisoindolin-5-yl)oxy)ethoxy)ethoxy)ethoxy)propyl)-2-(4-((6-fluorobenzo[d]thiazol-2-yl)oxy)phenoxy)acetamide] the value was “+”; for `CC(Oc1ccc(Oc2nc3ccc(F)cc3s2)cc1)C(=O)Nc1ccc(OCCCOCCOCCOCCOc2ccc3c(c2)C(=O)N(C2CCC(=O)NC2=O)C3=O)cc1F` (centres unmarked) [Compound 8-C, N-(4-(3-(2-(2-(2-((2-(2,6-Dioxopiperidin-3-yl)-1,3-dioxoisoindolin-5-yl)oxy)ethoxy)ethoxy)-ethoxy)propoxy)-2-fluorophenyl)-2-(4-((6-fluorobenzo[d]thiazol-2-yl)oxy)phenoxy)propanamide], “+”.
